Assay results taken from ChEMBL document CHEMBL1138412, “Chalcone based aryloxypropanolamines as potential antihyperglycemic agents” (2007).

Assays:
[1] = species: Rattus norvegicus; experiment: Antihyperglycemic activity in sucrose loaded model of Sprague-Dawley albino rat assessed as reduction in blood glucose by AUC method; assay type: functional; design: scale not given: the % may be the effect or the level left
[2] = species: Rattus norvegicus; experiment: Antihyperglycemic activity in streptozotocin induced diabetic model of Sprague-Dawley albino rat assessed as reduction in blood glucose by AUC method; assay type: functional; design: scale not given: the % may be the effect or the level left

| SMILES | Activity [1] | Activity [2] |
| --- | --- | --- |
| O=C(/C=C/c1ccc(OCC(O)CN2CCCCC2)cc1)c1ccccc1 (stereo unspecified) | 22.3% | 19.3% |
| CC(C)CNCC(O)COc1ccc(/C=C/C(=O)c2ccccc2)cc1 (stereo unspecified) | 6.5% | – |
| O=C(/C=C/c1cccc(OCC(O)CN2CCN(c3ccccc3Cl)CC2)c1)c1ccccc1 (stereo unspecified) | 19% | 8.3% |
| CC(C)(C)NCC(O)COc1ccc(/C=C/C(=O)c2ccccc2)cc1 (stereo unspecified) | 29% | 10.3% |
| O=C(/C=C/c1cccc(OCC(O)CN2CCCCC2)c1)c1ccccc1 (stereo unspecified) | 11.3% | 9.4% |
| CC(C)CNCC(O)COc1cccc(/C=C/C(=O)c2ccccc2)c1 (stereo unspecified) | 14.5% | – |
| O=C(/C=C/c1cccc(OCC(O)CN2CCN(c3ccccc3)CC2)c1)c1ccccc1 (stereo unspecified) | 22.9% | 10.4% |
| O=C(/C=C/c1ccc(OCC(O)CN2CCN(c3ccccc3)CC2)cc1)c1ccccc1 (stereo unspecified) | 31.1% | 3% |
| CN1CCN(CC(O)COc2cccc(/C=C/C(=O)c3ccccc3)c2)CC1 (stereo unspecified) | 20.4% | 20.1% |
| CC(C)N(CC(O)COc1cccc(/C=C/C(=O)c2ccccc2)c1)C(C)C (stereo unspecified) | 26.7% | 22.6% |
| CC(C)N(CC(O)COc1ccc(/C=C/C(=O)c2ccccc2)cc1)C(C)C (stereo unspecified) | 7.9% | – |
| CC(C)(C)NCC(O)COc1cccc(/C=C/C(=O)c2ccccc2)c1 (stereo unspecified) | 21.7% | 10.6% |
| CCN(CC)CCCNCC(O)COc1cccc(/C=C/C(=O)c2ccccc2)c1 (stereo unspecified) | 20.8% | 8.3% |
| COc1ccc(Cl)cc1C(=O)NCCc1ccc(S(=O)(=O)NC(=O)NC2CCCCC2)cc1 [GLYBURIDE] | 33.7% | 29% |
| CN(C)C(=N)NC(=N)N [METFORMIN] | 12.9% | – |
